Source: paper PMC12720098, “Prolintane analogs as hybrid monoamine transporter ligands: Structural determinants and species differences” (The Journal of Biological Chemistry, 2025)

Legend:
[1] = test system: native HEK293 cells; test: Whole-cell patch-clamp control in native HEK293 cells without transfection; format: cell-based, human; details: prolintane 30 µM, 5-HT 10 µM (Fig. S3)
Procedure: One day prior to recording, either native HEK293 cells or HEK293 cells stably expressing monoamine transporters were seeded at low density onto PDL-coated 35 mm dishes. Patch-clamp experiments were conducted at a holding potential of −60 mV, with substrate-induced currents recorded at room temperature (20–24 °C) using an […] amplifier and pClamp 11.2 software (MDS Analytical Technologies). During recordings, cells were continuously superfused via a DAD-12 perfusion system and an 8-tube manifold (ALA Scientific Instruments), delivering an external solution composed of 140 mM NaCl, 2.5 mM CaCl2, 3 mM KCl, 2 mM MgCl2, 20 mM glucose, and 10 mM HEPES, with pH adjusted to 7.3 using NaOH. The intracellular pipette solution, designed to mimic physiological ionic conditions, contained 133 mM potassium gluconate, 5.9 mM NaCl, 1 mM CaCl2, 0.7 mM MgCl2, 10 mM HEPES, and 10 mM EGTA, with pH set to 7.2 using KOH. Currents were filtered at 1 kHz and digitized at 10 kHz via a Digidata 1550 digitizer (MDS Analytical Technologies), followed by analysis in Clampfit 10.2 (Molecular Devices). Substance-induced currents were normalized to the current elicited by a saturating concentration of 5-HT (10 μM) of the same cell. Holding currents were subtracted, and a 50 Hz digital Gaussian low-pass filter was applied to the traces for further analysis.

[2] = biological target: T1, hSERT (Homo sapiens, UniProt P31645); design: method as in PMID 30397775; details: cited from earlier work
T1 construct: expressed in transfected cells
T1 sequence (P31645 whole entry): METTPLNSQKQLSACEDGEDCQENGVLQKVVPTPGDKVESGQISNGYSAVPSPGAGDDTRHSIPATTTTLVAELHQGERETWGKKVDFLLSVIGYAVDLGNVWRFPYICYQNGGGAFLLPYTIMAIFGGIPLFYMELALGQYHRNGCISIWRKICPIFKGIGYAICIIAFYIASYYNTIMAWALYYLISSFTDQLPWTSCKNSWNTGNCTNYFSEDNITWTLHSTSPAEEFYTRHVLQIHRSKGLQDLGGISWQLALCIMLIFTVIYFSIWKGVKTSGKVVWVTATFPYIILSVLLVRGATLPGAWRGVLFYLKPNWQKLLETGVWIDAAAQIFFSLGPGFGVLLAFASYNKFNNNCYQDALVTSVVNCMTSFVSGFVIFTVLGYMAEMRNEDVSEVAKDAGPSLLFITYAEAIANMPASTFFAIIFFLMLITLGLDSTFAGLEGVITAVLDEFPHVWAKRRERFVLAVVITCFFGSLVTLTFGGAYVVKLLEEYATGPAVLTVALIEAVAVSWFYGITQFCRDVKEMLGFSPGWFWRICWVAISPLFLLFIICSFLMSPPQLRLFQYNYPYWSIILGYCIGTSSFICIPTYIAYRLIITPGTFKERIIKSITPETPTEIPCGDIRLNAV

## CCCC(Cc1ccccc1)N1CCCC1 (stereo not drawn) [Prolintane, 1-(1-phenylpentan-2-yl)pyrrolidine]
[1]
  current in native HEK293 cells without transfection: do not induce currents
[1]; listed as prolintane
  current in native HEK293 cells without transfection: no current could be recorded
[2]
  effects at hSERT, fold weaker than at hDAT and hNET: approximately 10 fold
